Data reported in US11491155B2, “Salt of a pyrimido[6,1-A]isoquinolin-4-one compound” (VERONA PHARMA PLC, priority 2015, dated 2022).
Like-named read-outs stand apart in the source and are kept apart here.

Key:
[1] = RPL554 content and content uniformity of 1% w/w lactose powder blends; type: physicochemical; conditions: for Measured Blend Content (% Theoretical): 1% w/w RPL554 variant: lactose powder blend, expressed as RPL554 base; for **Adjusted RPL554 Content per capsule: per 20 mg capsule of 1% w/w lactose blend, adjusted for measured blend content (% theoretical), as RPL554 base
Procedure: Batches (approximately 5 g) of 1% w/w RPL554 free base or salt variants: lactose blends were prepared. In brief, the RPL554 free base or salt plus a small quantity of lactose was passed through a 38 μm sieve. The sieved material plus the remaining lactose was mixed in a glass mortar prior to transfer to a stainless steel screw cap jar and further mixing (10 minutes at 46 rpm) conducted using a Turbula blender. The composition of the dry powder blend was 0.05 g API and 4.95 g lactose.
In order to determine the content uniformity of the blends, aliquots (approx. 20 mg) of powder were sampled from each blend, accurately weighed, and diluted to volume in 10 mL volumetric flasks with diluent. The flasks were sonicated for 3 minutes before samples were transferred to HPLC vials for analysis.

[2] = Solubility of RPL554 and salts in pMDI propellant systems; type: physicochemical
Procedure: Quantitative assessment of the solubility of RPL554 and salt variants in the propellant systems of selected pMDI formulations (three replicates of each formulation) was performed. pMDIs were directly coupled to an adaptor fitted with a 0.20 μm filter unit connected, in series to a 21 G needle, which was inserted via a rubber septum, into a cooled multi-dose glass vial. A 19 G filter needle was inserted through the septum to aid evaporation of propellant from the vial. Prior to the filtration process the vial was cooled in a mixture of dry ice and acetone to ensure that the pressure within the vial was reduced in order to facilitate collection of the output from the pMDI. Ten consecutive actuations of the pMDI were fired through the filter and collected in the vial. Between actuations the canister was shaken for approximately 10 seconds. The pMDI unit was weighed before and after the filtering procedure. The filtrate was stored at room temperature and allowed to evaporate to dryness.
Samples were recovered by carefully rinsing the inside of the vials with 1 mL of recovery solution before transfer to HPLC vials for analysis. The estimated % of RPL554 solubilised within the canister was calculated from the starting mass of RPL554 within the canisters, which in turn was calculated using the theoretical molecular weight values of the RPL554 free base and salt variants shown in Table 13. The theoretical molecular weight estimates of the salts were provided by Verona.

[3] = Aerosol performance of DPI formulations (Cyclohaler, NGI); type: physicochemical; conditions: for †Measured Mass of 1% w/w Blend Delivered per capsule / ††RPL554 Emitted (μg) per capsule (B): Cyclohaler; for †Measured Mass of 1% w/w Blend Delivered per capsule: 5 capsules containing 20 mg powder blend, mass from weight change of capsule-loaded device; for ††RPL554 Emitted (μg) per capsule (B): NGI, mass determined from HPLC analysis of recovered samples; for ††RPL554 Emitted (μg) per capsule (B) / Calculated RPL554 Content (μg) per capsule (A): as RPL554 base; for Calculated RPL554 Content (μg) per capsule (A): calculated from delivered blend mass and measured blend content
Procedure: Capsules were hand filled with 20 mg of the 1% w/w RPL554 free base or salt variants: lactose blends, i.e. 200 μg salt per capsule, the fill weight of each capsule was recorded. Due to differences in the molecular weights of the RPL554 salt forms, the amount of RPL554 emitted per actuation varied as a function of molecular weight. The formulations were prepared with no adjustment for differences in molecular weight of the salts.
The powders were delivered via the Cyclohaler® DPI (PCH Pharmachemie, BV, The Netherlands). The Cyclohaler® DPI is a low resistance device and was operated at a flow rate of 90 L/min for 2.7 seconds. The cut off diameters for the NGI collection stages were calculated for the 90 L/min flow rate using the NGI User Guide (MSP Corporation, 2008).
The ED, FPD and FPF were determined from inertial impaction tests performed following the deposition of 5 capsules of each formulation into the NGI. For each capsule tested the combined weight of the Cyclohaler® and capsule was determined before and after operation to check that the dose had been delivered. The NGI was fitted with a pre-separator for these determinations. The central cup of the pre-separator was filled with 15 mL of diluent. Following deposition, the solution was recovered in a 20 mL volumetric flask and made up to volume with diluent. RPL554 was quantitatively recovered from the device, induction port and each of the NGI collection stages with 10 mL of diluent.
The volume of diluent used for each sample was selected to ensure RPL554 concentrations were above the limit of quantitation.

[4] = Primary particle size analysis by laser light diffraction (Mastersizer 2000); type: physicochemical; conditions: micronised, mean n=3
Procedure: A Mastersizer 2000 fitted with a Scirocco 2000 dry powder dispersion unit (Malvern Instruments Ltd, UK) was used to analyse the primary particle size of the micronised RPL554 and salt variants. The salts (50 mg) were automatically sampled via a vibrating feed control at a feeder rate of 60% and dispersed in compressed air at a pressure of 3 bar.

[5] = Intrinsic dissolution of compressed tablet, pH 7.0, 37° C. (Sirius inForm); type: physicochemical; conditions: pH 7.0, 0.15 M NaCl, 37° C.
Procedure: The dissolution assay (pH-dependent sample dissolution) was investigated using the Sirius inForm.
Dissolution of a compressed tablet of the compound was monitored in a pH 7.0 aqueous dissolution experiment (0.15 M NaCl) at 37° C. using UV-absorption spectroscopy in 2 hour experiments. A tablet with a diameter of 3 mm, requiring approximate weights of 10 mg was compressed under a weight of 100 kg load force. Only one face of the tablet was exposed to the dissolution medium, which contained a 0.01 M acetate/phosphate buffer system to minimise perturbation of the experimental pH from dissolution of the drug.
Stirring of the solution was continuous and at a constant rate of 100 rpm. The absorption data was converted to absolute sample weights using previously determined, pH-dependent, molar extinction coefficients. An appropriate wavelength range was chosen to ensure that spectroscopic data with an absorption value of <1.3 was analysed, avoiding erroneous dissolution results due to saturation of the UV light source.

[6] = Physico-chemical characteristics of salt candidates: solubility in water, pH of aqueous suspension/solution, form post water maturation
[7] = Solubility of RPL554 salts in saline solutions, water and aqueous buffer solutions at 25° C. (HPLC); type: physicochemical; conditions: 24 hours; for Solubility as RPL554 (mg/ml) in Water: deionised water
Procedure: The behaviour of salts of RPL554 were examined under the following conditions: • Phosphate buffered to pH 3.5 in saline, 0.9% w/w at 25° C. • Acetate buffered to pH 4.5 in saline, 0.9% w/w at 25° C. • Citro-Phosphate buffered to pH 4.5 in saline, 0.9% w/w at 25° C. • Phosphate buffered to pH 6.5 in saline, 0.9% w/w at 25° C. • Saline, 0.7, 0.9 and 1.1% w/w at 25° C. • Deionised water at 25° C.
RPL554 salts and RPL554, ca 50 mg, were suspended in the various aqueous media, 1 ml, with agitation at the specified temperatures for 24 hours. The solids were isolated and dried in vacuo at 45° C. The retained filtrates were examined by HPLC.
Additional RPL554 methane sulfonate salt, ca 50 mg, was charged to the water mixtures at 25° C. and 37.5° C. in order to afford a suspension. In all other cases, suspensions were obtained.
The solubility of the RPL554 was determined by HPLC using a single point calibration and is expressed as RPL554 and not as the salt and are detailed in Table 6 and Table 7 for the various conditions utilised.

[8] = HFA 134a: 227: 10% Ethanol: 0.1% Tween
[9] = in HFA 134, listed as Free Base
[10] = in HFA 134 with Ethanol/Tween, listed as Free Base
[11] = listed as p-toluenesulfonate salt

With `COc1cc2c(cc1OC)-c1c/c(=N\c3c(C)cc(C)cc3C)n(CCNC(N)=O)c(=O)n1CC2` [RPL554, 9,10-dimethoxy-2-(2,4,6-trimethylphenylimino)-3-(N-carbamoyl-2-aminoethyl)-3,4,6,7-tetrahydro-2H-pyrimido[6,1-a]isoquinolin-4-one] the “Measured Blend Content (% Theoretical)” value ([1]; listed as Free Base) was 96.44 % Theoretical, the “**Adjusted RPL554 Content per capsule” value ([1]; listed as Free Base) was 192.87 µg and the “Estimated Solubilised RPL554 μg per 50 μL actuation” value [2, 8] was 1.06 µg. For the same compound, the “Solubility RPL554” value [2, 8] was 16.11 µg/g, the “Estimated RPL554 solubilised (%)” value ([2]; HFA 134a: 227: 10% Ethanol: 0.1% Tween, listed as Free base) was 0.53% and the “Solubility RPL554 (μg/g)” value ([2]; in HFA 134, BLQ = below limit of quantitation (0.06 μg/mL), listed as Free Base) was “BLQ”. The “Calculated RPL554 solubilised (%)” value [2, 9] was “BLQ”, the “Calculated Solubilised RPL554 μg per 50 μL actuation” value [2, 9] was “BLQ” and the “Estimated RPL554 solubilised (%)” value [2, 10] was 0.56%. The “Estimated Solubilised RPL554 μg per 50 μL actuation” value [2, 10] was 1.12 µg, the “Solubility RPL554” value [2, 10] was 16.45 µg/g and the “†Measured Mass of 1% w/w Blend Delivered per capsule” value ([3]; listed as Free Base) was 20.12 mg. For the same compound, the “††RPL554 Emitted (μg) per capsule (B)” value ([3]; listed as Free Base) was 133.59 µg, the “Calculated RPL554 Content (μg) per capsule (A)” value ([3]; listed as Free Base) was 194.03 µg and the “D (0.1) (μm)” value ([4]; listed as Free base) was 0.58 μm. The “D (0.5) (μm)” value ([4]; listed as Free base) was 1.37 μm, the “D (0.9) (μm)” value ([4]; listed as Free base) was 3.00 μm and the “Mass of salt (μg) dissolved after 2 hours, Average” value ([5]; listed as free base) was 13.5 µg. For the same compound, the “Mass of salt (μg) dissolved after 2 hours, Test 1” value ([5]; listed as free base) was 10.0 µg and the “Mass of salt (μg) dissolved after 2 hours, Test 2” value ([5]; listed as free base) was 17.0 µg.
For `COc1cc2c(cc1OC)-c1c/c(=N\c3c(C)cc(C)cc3C)n(CCNC(N)=O)c(=O)n1CC2` [Sulfuric - ethanol solution], the “pH of aqueous suspension/solution” value [6] was 3.28.
For `COc1cc2c(cc1OC)-c1c/c(=N\c3c(C)cc(C)cc3C)n(CCNC(N)=O)c(=O)n1CC2` [Phosphate, RPL554 phosphate], the “pH of aqueous suspension/solution” value ([6]; listed as Phosphoric) was 3.08, the “Solubility as RPL554 (mg/ml) in 0.7 w/w % Saline” value (shortened to “Solubility … in 0.7 w/w % Saline”) [7] was 7.22 mg/mL and the “Solubility as RPL554 (mg/ml) in 0.9 w/w % Saline” value (from here on “Solubility … in 0.9 w/w % Saline”) [7] was 4.78 mg/mL. The “Solubility as RPL554 (mg/ml) in 1.1 w/w % Saline” value (“Solubility … in 1.1 w/w % Saline” for short) [7] was 2.86 mg/mL and the “Solubility as RPL554 (mg/ml) in Water” value [7] was 41.84 mg/mL.
For `COc1cc2c(cc1OC)-c1c/c(=N\c3c(C)cc(C)cc3C)n(CCNC(N)=O)c(=O)n1CC2` [Naphthalene-2-sulfonate], the “Solubility … in 0.7 w/w % Saline” value [7] was 0.17 mg/mL, the “Solubility … in 0.9 w/w % Saline” value [7] was 0.09 mg/mL and the “Solubility … in 1.1 w/w % Saline” value [7] was 0.09 mg/mL. The “Solubility as RPL554 (mg/ml) in Water” value [7] was 0.13 mg/mL.
With `COc1cc2c(cc1OC)-c1c/c(=N\c3c(C)cc(C)cc3C)n(CCNC(N)=O)c(=O)n1CC2` [p-Toluenesulfonate, RPL554 p-toluenesulfonate] the “Measured Blend Content (% Theoretical)” value [1] was 88.66 % Theoretical, the “**Adjusted RPL554 Content per capsule” value [1] was 130.33 µg and the “pH of aqueous suspension/solution” value ([6]; listed as p-Toluene sulfonic) was 3.40. The “Solubility … in 0.7 w/w % Saline” value [7] was 0.83 mg/mL, the “Solubility … in 0.9 w/w % Saline” value [7] was 0.62 mg/mL and the “Solubility … in 1.1 w/w % Saline” value [7] was 0.8 mg/mL. For the same compound, the “Solubility as RPL554 (mg/ml) in Water” value [7] was 1.01 mg/mL, the “Calculated RPL554 solubilised (%)” value ([2]; in HFA 134) was 0.08% and the “Calculated Solubilised RPL554 μg per 50 μL actuation” value ([2]; in HFA 134) was 0.11 µg. The “Solubility RPL554” value ([2]; in HFA 134, BLQ = below limit of quantitation (0.06 μg/mL)) was 1.56 µg/g, the “Solubility RPL554 (μg/g)” value ([2]; in HFA 134, BLQ = below limit of quantitation (0.06 μg/mL), listed as p-toluensulfonate) was “quantifiable levels of solubility” and the “Estimated RPL554 solubilised (%)” value ([2]; in HFA 134 with Ethanol/Tween) was 7.20%. The “Estimated Solubilised RPL554 μg per 50 μL actuation” value ([2]; in HFA 134 with Ethanol/Tween) was 10.58 µg, the “Solubility RPL554” value ([2]; in HFA 134 with Ethanol/Tween) was 152.85 µg/g and the “Calculated RPL554 solubilised (%)” value ([2]; in HFA 227) was “BLQ”. For the same compound, the “Calculated Solubilised RPL554 μg per 50 μL actuation” value ([2]; in HFA 227) was “BLQ”, the “Solubility RPL554 (μg/g)” value ([2]; in HFA 227) was “BLQ” and the “†Measured Mass of 1% w/w Blend Delivered per capsule” value [3] was 20.02 mg. For the same compound, the “††RPL554 Emitted (μg) per capsule (B)” value [3] was 86.84 µg, the “Calculated RPL554 Content (μg) per capsule (A)” value [3] was 130.46 µg and the “D (0.1) (μm)” value [4] was 0.47 μm. The “D (0.5) (μm)” value [4] was 1.34 μm, the “D (0.9) (μm)” value [4] was 4.53 μm and the “Mass of salt (μg) dissolved after 2 hours, Average” value [5, 11] was 61.6 µg. The “Mass of salt (μg) dissolved after 2 hours, Test 1” value [5, 11] was 51.2 µg and the “Mass of salt (μg) dissolved after 2 hours, Test 2” value [5, 11] was 71.9 µg.
